Source: article PMC9851200, “Multiparameter phenotypic screening for endogenous TFEB and TFE3 translocation identifies novel chemical series modulating lysosome function” (Autophagy, 2022)

Legend:
Format in all cases: binding
[1] = molecular target: T1, kinases (KINOMEscan panel) (Homo sapiens, UniProt O15146); details: MUSK; NEW KINOMEscan
T1 sequence (O15146 24-869): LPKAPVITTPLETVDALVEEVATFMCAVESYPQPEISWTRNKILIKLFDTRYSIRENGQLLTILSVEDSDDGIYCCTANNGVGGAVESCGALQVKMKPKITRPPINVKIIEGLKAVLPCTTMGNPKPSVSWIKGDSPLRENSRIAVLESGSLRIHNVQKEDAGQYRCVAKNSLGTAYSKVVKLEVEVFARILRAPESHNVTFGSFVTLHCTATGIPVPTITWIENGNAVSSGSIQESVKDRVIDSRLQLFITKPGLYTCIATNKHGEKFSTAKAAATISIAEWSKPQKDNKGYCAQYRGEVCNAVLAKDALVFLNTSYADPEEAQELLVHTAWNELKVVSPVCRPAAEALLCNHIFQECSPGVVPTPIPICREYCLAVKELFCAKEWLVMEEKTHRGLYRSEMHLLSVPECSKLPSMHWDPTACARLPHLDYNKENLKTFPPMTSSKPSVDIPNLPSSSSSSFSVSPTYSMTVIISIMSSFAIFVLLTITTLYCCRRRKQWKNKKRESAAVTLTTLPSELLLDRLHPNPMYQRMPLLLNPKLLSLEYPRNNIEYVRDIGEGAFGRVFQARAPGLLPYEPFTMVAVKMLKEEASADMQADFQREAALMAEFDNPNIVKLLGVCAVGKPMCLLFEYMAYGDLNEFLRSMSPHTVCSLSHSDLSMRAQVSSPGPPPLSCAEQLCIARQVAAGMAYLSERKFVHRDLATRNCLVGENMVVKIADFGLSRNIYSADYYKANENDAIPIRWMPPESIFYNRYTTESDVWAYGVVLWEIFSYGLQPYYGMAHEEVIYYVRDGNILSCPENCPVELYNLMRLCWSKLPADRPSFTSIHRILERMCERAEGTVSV

[2] = molecular target: kinases (KINOMEscan panel) (Homo sapiens, UniProt Q9H2X6); details: NEW KINOMEscan
[3] = molecular target: kinases (KINOMEscan panel) (Homo sapiens, UniProt Q9BVS4); details: RIOK2; NEW KINOMEscan
[4] = molecular target: kinases (KINOMEscan panel) (Homo sapiens, UniProt P36888, N841I); details: FLT3(N841I); NEW KINOMEscan
[5] = molecular target: kinases (KINOMEscan panel) (Homo sapiens, UniProt P04049); details: RAF1; NEW KINOMEscan
[6] = molecular target: T2, kinases (KINOMEscan panel) (Homo sapiens, UniProt P20794); details: NEW KINOMEscan
T2 sequence (P20794 1-623): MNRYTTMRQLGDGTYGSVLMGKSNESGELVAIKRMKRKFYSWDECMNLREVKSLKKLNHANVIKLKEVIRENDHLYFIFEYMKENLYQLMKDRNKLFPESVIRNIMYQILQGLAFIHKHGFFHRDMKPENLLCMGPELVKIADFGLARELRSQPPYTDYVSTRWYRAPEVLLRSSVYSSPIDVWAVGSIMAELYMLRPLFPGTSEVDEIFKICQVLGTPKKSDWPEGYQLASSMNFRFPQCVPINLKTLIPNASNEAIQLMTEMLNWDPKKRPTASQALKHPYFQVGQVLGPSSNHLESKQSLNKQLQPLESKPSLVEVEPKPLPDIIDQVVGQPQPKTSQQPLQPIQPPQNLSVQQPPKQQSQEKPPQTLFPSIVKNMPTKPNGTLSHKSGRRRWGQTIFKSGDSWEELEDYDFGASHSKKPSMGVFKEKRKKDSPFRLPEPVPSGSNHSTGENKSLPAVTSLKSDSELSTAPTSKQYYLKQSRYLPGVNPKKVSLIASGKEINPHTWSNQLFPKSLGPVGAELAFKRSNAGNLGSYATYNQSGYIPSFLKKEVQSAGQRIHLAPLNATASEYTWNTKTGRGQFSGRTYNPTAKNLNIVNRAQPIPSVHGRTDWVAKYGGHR

[7] = molecular target: T3, kinases (KINOMEscan panel) (Homo sapiens, UniProt P29320); details: kinase EPHA3; NEW KINOMEscan
T3 sequence (P29320 21-983): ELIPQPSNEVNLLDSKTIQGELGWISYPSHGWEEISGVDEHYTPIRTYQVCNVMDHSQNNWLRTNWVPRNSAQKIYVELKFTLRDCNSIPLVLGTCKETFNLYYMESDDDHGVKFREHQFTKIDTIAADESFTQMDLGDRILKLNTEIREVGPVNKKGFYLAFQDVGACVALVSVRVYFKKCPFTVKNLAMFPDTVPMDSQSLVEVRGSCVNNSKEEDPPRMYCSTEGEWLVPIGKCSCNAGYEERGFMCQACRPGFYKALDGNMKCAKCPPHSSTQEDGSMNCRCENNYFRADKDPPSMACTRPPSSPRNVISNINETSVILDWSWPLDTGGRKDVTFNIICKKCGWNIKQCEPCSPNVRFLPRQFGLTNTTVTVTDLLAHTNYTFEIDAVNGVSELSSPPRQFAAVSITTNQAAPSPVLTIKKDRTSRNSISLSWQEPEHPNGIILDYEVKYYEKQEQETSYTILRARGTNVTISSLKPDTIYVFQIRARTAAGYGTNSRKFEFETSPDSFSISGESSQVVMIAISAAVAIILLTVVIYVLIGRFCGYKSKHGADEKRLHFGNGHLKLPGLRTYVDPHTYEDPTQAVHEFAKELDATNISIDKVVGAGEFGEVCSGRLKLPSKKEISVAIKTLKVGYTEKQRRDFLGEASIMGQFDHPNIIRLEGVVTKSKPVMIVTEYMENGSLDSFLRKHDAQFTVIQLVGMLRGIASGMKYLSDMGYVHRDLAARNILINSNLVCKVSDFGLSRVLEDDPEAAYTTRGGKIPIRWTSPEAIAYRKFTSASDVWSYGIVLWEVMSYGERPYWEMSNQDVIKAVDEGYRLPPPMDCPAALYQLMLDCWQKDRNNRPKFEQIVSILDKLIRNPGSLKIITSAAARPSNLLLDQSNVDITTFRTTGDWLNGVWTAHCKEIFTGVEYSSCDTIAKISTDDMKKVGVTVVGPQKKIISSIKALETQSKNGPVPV

[8] = molecular target: kinases (KINOMEscan panel) (Homo sapiens, UniProt P36888, R834Q); details: kinase FLT3(R834Q); NEW KINOMEscan

Chain of kinases (KINOMEscan panel) (Homo sapiens, UniProt P04049) (P04049 whole entry): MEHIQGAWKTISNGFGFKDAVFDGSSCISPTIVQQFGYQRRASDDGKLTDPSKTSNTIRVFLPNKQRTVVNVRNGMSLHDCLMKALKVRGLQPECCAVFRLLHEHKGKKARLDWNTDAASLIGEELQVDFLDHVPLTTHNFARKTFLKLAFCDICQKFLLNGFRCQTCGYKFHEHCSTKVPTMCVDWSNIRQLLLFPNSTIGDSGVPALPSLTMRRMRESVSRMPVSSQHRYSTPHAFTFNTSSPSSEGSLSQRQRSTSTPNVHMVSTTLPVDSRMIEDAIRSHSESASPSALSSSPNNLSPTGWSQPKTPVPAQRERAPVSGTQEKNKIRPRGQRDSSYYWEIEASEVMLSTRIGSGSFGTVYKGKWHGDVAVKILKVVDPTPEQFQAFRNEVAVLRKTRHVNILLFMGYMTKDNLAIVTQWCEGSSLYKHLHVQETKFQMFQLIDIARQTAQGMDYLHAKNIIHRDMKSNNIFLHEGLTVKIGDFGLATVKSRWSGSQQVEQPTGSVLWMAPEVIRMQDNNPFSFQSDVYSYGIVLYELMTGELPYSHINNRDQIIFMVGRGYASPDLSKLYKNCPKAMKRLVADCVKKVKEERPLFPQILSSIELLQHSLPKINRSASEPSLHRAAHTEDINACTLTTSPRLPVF
Chain of kinases (KINOMEscan panel) (Homo sapiens, UniProt Q9H2X6) (Q9H2X6 whole entry): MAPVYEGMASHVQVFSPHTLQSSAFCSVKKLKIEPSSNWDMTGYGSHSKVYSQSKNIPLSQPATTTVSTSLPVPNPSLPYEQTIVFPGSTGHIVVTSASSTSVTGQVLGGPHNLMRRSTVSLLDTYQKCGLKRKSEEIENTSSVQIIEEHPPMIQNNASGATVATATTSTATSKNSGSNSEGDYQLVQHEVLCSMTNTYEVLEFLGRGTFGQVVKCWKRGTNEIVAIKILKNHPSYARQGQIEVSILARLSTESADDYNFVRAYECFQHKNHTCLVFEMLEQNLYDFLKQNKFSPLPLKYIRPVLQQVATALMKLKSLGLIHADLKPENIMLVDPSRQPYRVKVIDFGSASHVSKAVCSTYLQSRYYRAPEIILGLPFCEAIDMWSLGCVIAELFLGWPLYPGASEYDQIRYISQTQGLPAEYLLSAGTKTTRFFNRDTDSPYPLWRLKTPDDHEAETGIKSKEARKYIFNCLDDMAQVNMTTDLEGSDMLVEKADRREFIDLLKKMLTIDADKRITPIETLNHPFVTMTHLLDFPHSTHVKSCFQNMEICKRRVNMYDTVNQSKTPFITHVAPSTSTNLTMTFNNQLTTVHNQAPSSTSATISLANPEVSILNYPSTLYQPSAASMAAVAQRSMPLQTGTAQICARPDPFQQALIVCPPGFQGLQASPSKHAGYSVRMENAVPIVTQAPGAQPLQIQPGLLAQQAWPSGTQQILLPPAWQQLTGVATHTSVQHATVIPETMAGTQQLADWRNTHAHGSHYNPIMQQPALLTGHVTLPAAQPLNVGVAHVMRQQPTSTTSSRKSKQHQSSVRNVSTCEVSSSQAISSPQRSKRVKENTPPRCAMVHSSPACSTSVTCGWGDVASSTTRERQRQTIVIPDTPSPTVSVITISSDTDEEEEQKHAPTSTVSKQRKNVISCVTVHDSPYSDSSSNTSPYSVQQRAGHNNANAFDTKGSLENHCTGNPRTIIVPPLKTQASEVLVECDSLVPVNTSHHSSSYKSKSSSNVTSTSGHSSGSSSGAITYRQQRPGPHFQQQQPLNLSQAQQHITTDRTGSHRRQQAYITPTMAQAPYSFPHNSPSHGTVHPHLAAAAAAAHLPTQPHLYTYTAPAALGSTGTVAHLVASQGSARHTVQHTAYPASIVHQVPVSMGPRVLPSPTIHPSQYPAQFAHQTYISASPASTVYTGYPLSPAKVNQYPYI
Chain of kinases (KINOMEscan panel) (Homo sapiens, UniProt Q9BVS4) (Q9BVS4 whole entry): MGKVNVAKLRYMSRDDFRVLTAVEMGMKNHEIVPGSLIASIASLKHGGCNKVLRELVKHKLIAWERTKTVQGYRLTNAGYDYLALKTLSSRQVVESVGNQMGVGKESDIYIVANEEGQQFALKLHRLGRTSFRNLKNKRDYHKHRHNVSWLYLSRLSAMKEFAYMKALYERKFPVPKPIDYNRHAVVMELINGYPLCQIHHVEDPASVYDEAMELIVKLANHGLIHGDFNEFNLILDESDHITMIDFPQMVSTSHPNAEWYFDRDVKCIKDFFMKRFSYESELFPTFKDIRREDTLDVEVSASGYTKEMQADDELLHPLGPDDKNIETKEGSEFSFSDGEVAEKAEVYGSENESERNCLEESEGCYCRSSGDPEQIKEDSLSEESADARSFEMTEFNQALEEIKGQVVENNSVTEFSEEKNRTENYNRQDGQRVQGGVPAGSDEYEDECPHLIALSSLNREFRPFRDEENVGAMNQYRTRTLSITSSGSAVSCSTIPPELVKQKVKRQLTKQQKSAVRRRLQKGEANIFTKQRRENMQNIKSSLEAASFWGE

| Compound | KINOMEscan MUSK [1] | KINOMEscan HIPK2 [2] | KINOMEscan RIOK2 [3] | KINOMEscan FLT3(N841I) [4] | KINOMEscan RAF1 [5] | KINOMEscan MAK or ALPK3 [6] | KINOMEscan EPHA3 [7] | KINOMEscan FLT3(R834Q) [8] |
| --- | --- | --- | --- | --- | --- | --- | --- | --- |
| Cc1cccc(-c2nc(Nc3ccc4nn(C)cc4c3)c3ccccc3n2)n1 [NK167] | 2 | 33 | 3 | 3 | 4 | 0 | 0 | 0 |
| Cc1cccc(-c2nc(N(C)c3ccc4ncsc4c3)c3ccccc3n2)n1 [NK-161] | 0 | 28 | 3 | 0 | 0 | 5 | 0 | 2 |
